BindingDB's records for doi:10.1021/jm00001a011 (University of Auckland, 1995)

Test: Inhibitory concentration of the against pp60v-src tyrosine kinase obtained from v-src baculovirus-infected insect cells

Row | Structure (SMILES) | IC50 [µM]
1 | CN(C)C(=O)c1c(SSc2c(C(=O)N(C)C)c3ccccc3n2C)n(C)c2ccccc12 [1,3N,3N-trimethyl-2-(3-dimethylcarbamoyl-1-methyl-1H-2-indolyldisulfanyl)-1H-3-indolecarboxamide0.5 H2O] | 0.5
2 | O=C(O)CCc1c(SSc2[nH]c3ccccc3c2CCC(=O)O)[nH]c2ccccc12 [2,2 -Dithiobis(1H-indole-3-propanoic acid)] | 5.1
3 | Cn1c(SSc2c(C(N)=O)c3ccccc3n2C)c(C(N)=O)c2ccccc21 [2-(3-carbamoyl-1-methyl-1H-2-indolyldisulfanyl)-1-methyl-1H-3-indolecarboxamide0.5 H2O] | 0.8
4 | Cn1c(SSc2c(C(=O)Nc3ccccc3C(=O)O)c3ccccc3n2C)c(C(=O)Nc2ccccc2C(=O)O)c2ccccc21 [2-{2-[3-(2-carboxyphenylcarbamoyl)-1-methyl-1H-2-indolyldisulfanyl]-1-methyl-1H-3-indolylcarboxamido}benzoic acid2.0 H2O] | 3.5
5 | Cn1c(SSc2c(C(=O)Nc3cccc(C(=O)O)c3)c3ccccc3n2C)c(C(=O)Nc2cccc(C(=O)O)c2)c2ccccc21 [3-{2-[3-(3-carboxyphenylcarbamoyl)-1-methyl-1H-2-indolyldisulfanyl]-1-methyl-1H-3-indolylcarboxamido}benzoic acid0.5 H2O] | 5.3
6 | Cn1c(SSc2c(C(=O)NCC(O)CO)c3ccccc3n2C)c(C(=O)NCC(O)CO)c2ccccc21 (configuration not stated) [3N-(2,3-dihydroxypropyl)-2-[3-(2,3-dihydroxypropylcarbamoyl)-1-methyl-1H-2-indolyldisulfanyl]-1-methyl-1H-3-indolecarboxamide] | 22.5
7 | Cn1c(SSc2c(C(=O)Nc3cccs3)c3ccccc3n2C)c(C(=O)Nc2cccs2)c2ccccc21 [3N-(2-thienyl)-1-methyl-2-[1-methyl-3-(2-thienylcarbamoyl)-1H-2-indolyldisulfanyl]-1H-3-indolecarboxamide] | > 50
8 | Cn1c(SSc2c(C(=O)Nc3cccnc3)c3ccccc3n2C)c(C(=O)Nc2cccnc2)c2ccccc21 [3N-(3-pyridyl)-1-methyl-2-[1-methyl-3-(3-pyridylcarbamoyl)-1H-2-indolyldisulfanyl]-1H-3-indolecarboxamide] | > 50
9 | Cn1c(SSc2c(C(=O)NCc3ccccc3)c3ccccc3n2C)c(C(=O)NCc2ccccc2)c2ccccc21 [3N-benzyl-2-(3-benzylcarbamoyl-1-methyl-1H-2-indolyldisulfanyl)-1-methyl-1H-3-indolecarboxamide] | 8
10 | O=C(NCc1ccccc1)c1c(SSc2[nH]c3ccccc3c2C(=O)NCc2ccccc2)[nH]c2ccccc12 [3N-benzyl-2-(3-benzylcarbamoyl-1H-2-indolyldisulfanyl)-1H-3-indolecarboxamide] | 16.3
11 | CCn1c(SSc2c(C(=O)Nc3ccccc3)c3ccccc3n2CC)c(C(=O)Nc2ccccc2)c2ccccc21 [3N-phenyl-1-ethyl-2-(1-ethyl-3-phenylcarbamoyl-1H-2-indolyldisulfanyl)-1H-3-indolecarboxamide] | > 100
12 | O=C(Nc1ccccc1)c1c(SSc2[nH]c3ccccc3c2C(=O)Nc2ccccc2)[nH]c2ccccc12 [3N-phenyl-2-(3-phenylcarbamoyl-1H-2-indolyldisulfanyl)-1H-3-indolecarboxamide] | 7.6
13 | Cn1c(SSc2c(C(=O)c3ccc(C(=O)O)cc3)c3ccccc3n2C)c(C(=O)c2ccc(C(=O)O)cc2)c2ccccc21 [4-{2-[3-(4-carboxybenzoyl)-1-methyl-1H-2-indolyldisulfanyl]-1-methyl-1H-3-indolylcarbonyl}benzoic acid2 H2O] | 4
14 | Cn1c(SSc2c(C(=O)Nc3ccc(C(=O)O)cc3)c3ccccc3n2C)c(C(=O)Nc2ccc(C(=O)O)cc2)c2ccccc21 [4-{2-[3-(4-carboxyphenylcarbamoyl)-1-methyl-1H-2-indolyldisulfanyl]-1-methyl-1H-3-indolylcarboxamido}benzoic acid H2O] | 4.3
15 | Cn1c(SSc2c(C(=O)NCC(=O)O)c3ccccc3n2C)c(C(=O)NCC(=O)O)c2ccccc21 [({2-[3-(Carboxymethyl-carbamoyl)-1-methyl-1H-indol-2-yldisulfanyl]-1-methyl-1H-indole-3-carbonyl}-amino)-acetic acid] | 1
16 | Cc1c(SSc2c(C)c3ccccc3n2C)n(C)c2ccccc12 [di(1,3-dimethyl-1H-2-indolyl) disulfide] | > 50
17 | c1ccc(-c2c(SSc3[nH]c4ccccc4c3-c3ccccc3)[nH]c3ccccc23)cc1 [di(3-phenyl-1H-2-indolyl) disulfide] | > 100
18 | COC(=O)c1ccccc1NC(=O)c1c(SSc2c(C(=O)Nc3ccccc3C(=O)OC)c3ccccc3n2C)n(C)c2ccccc12 [methyl 2-{1-methyl-2-[1-methyl-3-(2-methyloxycarbonylphenylcarbamoyl)-1H-2-indolyldisulfanyl]-1H-3-indolylcarboxamido}benzoate0.5 H2O] | 15.6
19 | COC(=O)c1cccc(NC(=O)c2c(SSc3c(C(=O)Nc4cccc(C(=O)OC)c4)c4ccccc4n3C)n(C)c3ccccc23)c1 [methyl 3-{1-methyl-2-[1-methyl-3-(3-methyloxycarbonylphenylcarbamoyl)-1H-2-indolyldisulfanyl]-1H-3-indolylcarboxamido}benzoate] | 5.4
20 | COC(=O)c1ccc(C(=O)c2c(SSc3c(C(=O)c4ccc(C(=O)OC)cc4)c4ccccc4n3C)n(C)c3ccccc23)cc1 [methyl 4-{1-methyl-2-[1-methyl-3-(4-methyloxycarbonylbenzoyl)-1H-2-indolyldisulfanyl]-1H-3-indolylcarbonyl}benzoate] | 7.1
21 | COC(=O)c1ccc(CNC(=O)c2c(SSc3c(C(=O)NCc4ccc(C(=O)OC)cc4)c4ccccc4n3C)n(C)c3ccccc23)cc1 [methyl 4-{1-methyl-2-[1-methyl-3-(4-methyloxycarbonylbenzylcarbamoyl)-1H-2-indolyldisulfanyl]-1H-3-indolylcarboxamidomethyl}benzoate0.5 H2O] | 2.5
22 | COC(=O)c1ccc(NC(=O)c2c(SSc3c(C(=O)Nc4ccc(C(=O)OC)cc4)c4ccccc4n3C)n(C)c3ccccc23)cc1 [methyl 4-{1-methyl-2-[1-methyl-3-(4-methyloxycarbonylphenylcarbamoyl)-1H-2-indolyldisulfanyl]-1H-3-indolylcarboxamido}benzoate H2O] | 4.2
